# Where two headings read alike, the source gives them in different places.
# Assays:
# [1] = association with α-cyclodextrin by 1H n.m.r. spectroscopy; type: physicochemical; conditions: D2O, ca. 22° C.; corrected chemical shifts H-3 and H-a vs fraction bound
# Experimental: (§1) We have studied the association constant for the preferred compound according to the invention by a micro-calorimetric method which involves measuring the heat evolved when solutions of the platinum(II) compound and α-cyclodextrin are mixed and also by using a ^1 H n.m.r. spectroscopic approach.
# For the spectroscopic approach, two types of spectroscopic investigations were performed in D2 O at ca. 22° C. using a Bruker AM250FT Spectrometer. In the first series of experiments, equimolar solutions of Pt(NH3)2.CBDCA and α-cyclodextrin were studied at various dilutions and, in the second series of experiments, the concentration of the platinum complex was kept constant and the concentration of the α-cyclodextrin was varied. When processing the chemical shift data, corrections were made to allow for the tendency of α-cyclodextrin to self-associate. […] The latter was calculated from the equilibrium constant, corrected to the aquamolal scale, obtained from the microcalorimetric measurements.
# [2] = association with α-cyclodextrin by microcalorimetry; type: physicochemical
# Description: as §1
# For the microcalorimetry experiments, a solution of the platinum complex (0.02366 mol kg^-1) in water was mixed with a range of aqueous solutions of α-cyclodextrin (ca. 0.01-0.1 mol kg^-1) in a batch calorimeter operating at 25° C. A series of preliminary experiments was performed so that corrections for the contributions arising from the enthalpy of dilution of the two solutes could be made. The expression linking the enthalpy change per mol (ΔH) of Pt(NH3)2.CBDCAto the final molalities of both this guest (G) and the α-cyclodextrin host (H) and to the equilibrium constant (Ka) and the standard enthalpy change (ΔH⊖) for the equilibrium,
# H+G.revreaction.H·G,
# Ka =ΔH·ΔH⊖ /(ΔH⊖
# [H]-ΔH[G])(ΔH⊖ -ΔH) (1)
# In the Figure, the filled circles denote experimental points and the line denotes the analysis obtained using Equation (1). It is seen that good correlation is obtained between theory and practice.
# kidneys = assay: in vivo nephrotoxicity; design: species or system male Wistar albino rats; conditions: rat; for histological examination of the kidneys / plasma urea nitrogen levels / urine protein levels (proteinuria): in vivo; for gross nephrotoxicity: from plasma urea nitrogen
# Description: (§2) The kidneys were also subjected to histological examination.
# in vivo haematotoxicity = assay: in vivo haematotoxicity; design: species or system male Wistar albino rats; conditions: rat; for haematotoxicity and nephrotoxicity testing, comparison of the two compounds: blood samples days 1, 4, 8, 12 and 16 after injection, haematocrit, white blood cell counts, plasma urea nitrogen
# Description: as §2
# [3] = distribution of platinum in blood, urine and faeces following intravenous administration; type: in vivo, male Wistar albino rats; conditions: rat, 24 hours
# [4] = cited from earlier work
Compound,agreement between n.m.r. and thermodynamic results [1],"standard entropy change ΔS⊖ ([2]; association with α-cyclodextrin in water, recorded in FIG. 2) [J K^-1 mol^-1]",tendency to associate with α-cyclodextrin ([2]; in water),"standard enthalpy change ΔH⊖ ([2]; in water, 25° C., association with α-cyclodextrin) [kcal/mol]","association (equilibrium) constant Ka ([2]; in water, 25° C., α-cyclodextrin host) [kg/mol]",histological examination of the kidneys (kidneys),plasma urea nitrogen levels (kidneys),urine protein levels (proteinuria) (kidneys),gross nephrotoxicity (kidneys),"haematotoxicity and nephrotoxicity testing, comparison of the two compounds (in vivo haematotoxicity)","faecal levels, Pt excretion [3]","urine levels, Pt excretion [3]",aqueous solubility (attainable concentration) (water) [mM],"general toxicity ([4]; compared with certain other platinum-containing compounds, particularly cisplatin)",kidney toxicity ([4]; relative to cisplatin),anaemic and myelosuppressive response (in vivo haematotoxicity; inclusion compound compared with Pt(NH3)2.CBDCA alone),aqueous solubility (attainable concentration) (aqueous α-cyclodextrin solution)
"N.N.O=C([O-])C1(C(=O)[O-])CCC1.[Pt+4] [Pt(NH3)2.CBDCA, 1,1-cyclobutanedicarboxylatediammineplatinum(II)]",excellent agreement between the n.m.r. and thermodynamic results,-27,very marked tendency to associate with α-cyclodextrin in water,-5.02 ± 0.478,199 ± 10,Some nuclear enlargement of the kidneys,remained constant throughout the study period,no obvious proteinuria was observed,no gross nephtrotoxicity,Results as between the two test compounds were similar,4-5%,65-67%,50,relatively non-toxic,reduced dramatically,,
"inclusion compound of 1,1-cyclobutanedicarboxylatediammineplatinum(II) and α-cyclodextrin",,,,,,Some nuclear enlargement of the kidneys,remained constant throughout the study period,no obvious proteinuria was observed,no gross nephtrotoxicity,Results as between the two test compounds were similar,4-5%,65-67%,,,,slightly less anaemic and myelosuppressive response,approximately 200 mM

# Reference: patent publication US4696918A, “Solubilized platinum compound” (Johnson Matthey Public Limited Company, priority 1984, dated 1987)
